# Source: paper PMC6627993 (International Journal of Molecular Sciences, 2019)
# Read-outs that look alike come from different tables or passages of the source.
# How the values were obtained:
# OVSAHO [1] = experiment: MTT cell viability assay
# Experimental: (§4) The rate of cell-survival under the action of test substances was evaluated by an improved MTT assay as previously described [20, 31]. […] Incubation was ended after 72 h and cell survival was determined by addition of MTT (Serva, Heidelberg, Germany) solution (5 mg/mL in phosphate buffered saline). The formazan precipitate was dissolved in DMSO (VWR, Langenfeld, Germany). Absorbance was measured at 544 nm and 690 nm in a FLUOstar microplate-reader (BMG LabTech, Offenburg, Germany).
# Kuramochi = experiment: MTT cell viability assay
# Experimental: as §4
# CaOV3 = experiment: MTT cell viability assay
# Experimental: as §4
# A2780 [2] = settings: cited from earlier work
# HEY [3] = experiment: MTT cell viability assay
# Experimental: as §4
# A2780 [4] = experiment: MTT cell viability assay
# Experimental: as §4
# HDAC in Kuramochi cells = experiment: Whole-cell HDAC inhibition assay; format: cell-based, human; settings: 18 h incubation
# Experimental: (§1) The cellular HDAC assay was based on an assay published by Heltweg and Jung, Ciossek et al., and Bonfils et al. with minor modifications as described in [20]. Briefly, human cancer cell lines A2780, CaOV3, HEY, Kuramochi, and OVSAHO were seeded in 96-well tissue culture plates (Corning, Kaiserslautern, Germany) at a density of 15,000 c/w, 15,000 c/w, 17,500 c/w, 22,500 c/w, and 50,000 c/w in a total volume of 90 µL of culture medium. After 24 h, cells were incubated for 18 h with increasing concentrations of test compounds. The reaction was started by adding 10 µL of 3 mM Boc-Lys(Ac)-AMC (Bachem, Bubendorf, Switzerland) to reach final concentration of 0.3 mM [61]. The cells were incubated with the Boc-Lys(Ac)-AMC for 3 h under cell culture conditions. […] Fluorescence intensity was measured at excitation of 320 nm and emission of […] in a NOVOstar microplate reader (BMG LabTech, Offenburg, Germany).
# HDAC in CaOV3 cells = experiment: Whole-cell HDAC inhibition assay; format: cell-based, human; settings: 18 h incubation
# Experimental: as §1
# HDAC in HEY cells = experiment: Whole-cell HDAC inhibition assay; format: cell-based, human; settings: 18 h incubation
# Experimental: as §1
# HDAC in OVSAHO cells = experiment: Whole-cell HDAC inhibition assay; format: cell-based, human; settings: 18 h incubation
# Experimental: as §1
# HDAC in A2780 cells = experiment: Whole-cell HDAC inhibition assay; format: cell-based, human; settings: 18 h incubation
# Experimental: as §1
# [5] = tested on: A2780, CaOV3, HEY, Kuramochi, OVSAHO; experiment: Synergism study (Chou-Talalay, MTT), all cell lines; format: cell-based, human; settings: 48 h + 72 h; CI < 0.9 indicates synergism
# Experimental: (§2) Concentrations were chosen to achieve a fraction affected (fa; level of cell viability inhibition) between 0.2 and 0.9 in the Chou-Talalay-analysis.
# (§3) After 72 h, the cytotoxic effect was determined with a MTT cell viability assay. Calcusyn software 2.1 (Biosoft, Cambridge, UK) was used to calculate the combination index (CI) as a quantitative measure of the degree of drug interaction.
# HEY [6] = experiment: Measurement of apoptotic nuclei (subG1, flow cytometry); format: cell-based, human; settings: HDACi 48 h, then cisplatin IC50 24 h
# Experimental: Next, we investigated if the observed synergistic cytotoxic effect was mediated via apoptosis-induction. […] Then, cells were subjected to flow-cytometry-based subG1 analysis.
# A2780, CaOV3, HEY, Kuramochi, and OVSAHO cells were seeded at a density of 40,000 c/w, 50,000 c/w, 40,000 c/w, 60,000 c/w, and 100,000 c/w in 24-well plates (Sarstedt, Nürnbrecht, Germany). Cells were treated with entinostat, panobinostat, or nexturastat A and cisplatin alone or in combination for the indicated time points. Supernatant was removed after a centrifugation step and the cells were lysed in 500 µL hypotonic lysis buffer (0.1% sodium citrate, 0.1% Triton X-100, 100 µg/mL PI) at 4 °C in the dark overnight. The percentage of apoptotic nuclei with DNA content in sub-G1 was analyzed by flow cytometry using the CyFlow instrument (Partec, Norderstedt, Germany).
# OVSAHO [7] = experiment: Synergism study (Chou-Talalay, MTT), 48 h HDACi + 72 h HDACi and cisplatin; format: cell-based, human
# Experimental: as §2, §3
# A2780 [8] = experiment: as above; format: cell-based, human
# Experimental: as §2, §3
# HEY [9] = experiment: as above; format: cell-based, human
# Experimental: as §2, §3
# [10] = read-out: IC50 of cisplatin, cisplatin alone, 72 h
# [11] = read-out: IC50 (HDAC inhibitory activity)
# [12] = cisplatin 1.00 µM + panobinostat 40 nM
# [13] = cisplatin 2.00 µM + panobinostat 40 nM
# [14] = cisplatin 4.00 µM + panobinostat 40 nM
compound,measurement,setting,value
"N.N.[Cl][Pt][Cl] [Cisplatin, cis-diamminedichloridoplatinum(II)]",IC50,OVSAHO [1]; 72 h incubation,4.83 µM
same,pIC50 ± SEM,OVSAHO [1]; 72 h incubation,5.32 ± 0.01
same,IC50,OVSAHO [1]; [10],4.83 µM
same,IC50,Kuramochi; 72 h incubation,4.68 µM
same,pIC50 ± SEM,Kuramochi; 72 h incubation,5.33 ± 0.02
same,IC50,Kuramochi; [10],4.68 µM
same,IC50,CaOV3; 72 h incubation,1.44 µM
same,pIC50 ± SEM,CaOV3; 72 h incubation,5.84 ± 0.01
same,IC50,CaOV3; [10],1.44 µM
same,IC50-values for cisplatin in previous studies,A2780 [2],one-digit micromolar range
same,IC50,HEY [3]; 72 h incubation,5.25 µM
same,pIC50 ± SEM,HEY [3]; 72 h incubation,5.28 ± 0.01
same,IC50,HEY [3]; [10],5.25 µM
same,IC50,A2780 [4]; 72 h incubation,11 µM
same,pIC50 ± SEM,A2780 [4]; 72 h incubation,4.96 ± 0.01
same,IC50,A2780 [4]; [10],11 µM
"Cc1[nH]c2ccccc2c1CCNCc1ccc(/C=C/C(=O)NO)cc1 [Panobinostat, panobinostat]",pIC50 ± SEM (HDAC inhibitory activity),HDAC in Kuramochi cells,8.01 ± 0.07
same,IC50,HDAC in Kuramochi cells; [11],0.00987 µM
same,pIC50 ± SEM (HDAC inhibitory activity),HDAC in CaOV3 cells,8.10 ± 0.05
same,IC50,HDAC in CaOV3 cells; [11],0.00788 µM
same,pIC50 ± SEM (HDAC inhibitory activity),HDAC in HEY cells,7.87 ± 0.03
same,IC50,HDAC in HEY cells; [11],0.0136 µM
same,pIC50 ± SEM (HDAC inhibitory activity),HDAC in OVSAHO cells,7.64 ± 0.04
same,IC50,HDAC in OVSAHO cells; [11],0.0231 µM
same,pIC50 ± SEM (HDAC inhibitory activity),HDAC in A2780 cells,7.91 ± 0.06
same,IC50,HDAC in A2780 cells; [11],0.0121 µM
same,CI-values (interaction with cisplatin),[5],lower than 0.9
same,"apoptosis induction, combination with cisplatin versus cisplatin or HDACi alone",HEY [6],no difference in apoptosis induction
same,combination index (CI),OVSAHO [7]; [12],0.36
same,combination index (CI),OVSAHO [7]; cisplatin 1.00 µM + panobinostat 50 nM,0.33
same,combination index (CI),OVSAHO [7]; cisplatin 1.00 µM + panobinostat 60 nM,0.27
same,combination index (CI),OVSAHO [7]; cisplatin 1.00 µM + panobinostat 70 nM,0.26
same,combination index (CI),OVSAHO [7]; [13],0.25
same,combination index (CI),OVSAHO [7]; cisplatin 2.00 µM + panobinostat 50 nM,0.23
same,combination index (CI),OVSAHO [7]; cisplatin 2.00 µM + panobinostat 60 nM,0.21
same,combination index (CI),OVSAHO [7]; cisplatin 2.00 µM + panobinostat 70 nM,0.21
same,combination index (CI),OVSAHO [7]; cisplatin 3.00 µM + panobinostat 40 nM,0.24
same,combination index (CI),OVSAHO [7]; cisplatin 3.00 µM + panobinostat 50 nM,0.22
same,combination index (CI),OVSAHO [7]; cisplatin 3.00 µM + panobinostat 60 nM,0.21
same,combination index (CI),OVSAHO [7]; cisplatin 3.00 µM + panobinostat 70 nM,0.21
same,combination index (CI),OVSAHO [7]; [14],0.23
same,combination index (CI),OVSAHO [7]; cisplatin 4.00 µM + panobinostat 50 nM,0.22
same,combination index (CI),OVSAHO [7]; cisplatin 4.00 µM + panobinostat 60 nM,0.21
same,combination index (CI),OVSAHO [7]; cisplatin 4.00 µM + panobinostat 70 nM,0.21
same,combination index (CI),OVSAHO [7]; cisplatin 5.00 µM + panobinostat 40 nM,0.24
same,combination index (CI),OVSAHO [7]; cisplatin 5.00 µM + panobinostat 50 nM,0.23
same,combination index (CI),OVSAHO [7]; cisplatin 5.00 µM + panobinostat 60 nM,0.22
same,combination index (CI),OVSAHO [7]; cisplatin 5.00 µM + panobinostat 70 nM,0.22
same,combination index (CI),A2780 [8]; cisplatin 0.50 µM + panobinostat 10 nM,0.21
same,combination index (CI),A2780 [8]; cisplatin 0.50 µM + panobinostat 20 nM,0.10
same,combination index (CI),A2780 [8]; cisplatin 0.50 µM + panobinostat 30 nM,0.15
same,combination index (CI),A2780 [8]; cisplatin 0.50 µM + panobinostat 40 nM,0.15
same,combination index (CI),A2780 [8]; cisplatin 1.00 µM + panobinostat 10 nM,0.25
same,combination index (CI),A2780 [8]; cisplatin 1.00 µM + panobinostat 20 nM,0.12
same,combination index (CI),A2780 [8]; cisplatin 1.00 µM + panobinostat 30 nM,0.17
same,combination index (CI),A2780 [8]; [12],0.18
same,combination index (CI),A2780 [8]; cisplatin 2.00 µM + panobinostat 10 nM,0.35
same,combination index (CI),A2780 [8]; cisplatin 2.00 µM + panobinostat 20 nM,0.16
same,combination index (CI),A2780 [8]; cisplatin 2.00 µM + panobinostat 30 nM,0.22
same,combination index (CI),A2780 [8]; [13],0.21
same,combination index (CI),A2780 [8]; cisplatin 4.00 µM + panobinostat 10 nM,0.35
same,combination index (CI),A2780 [8]; cisplatin 4.00 µM + panobinostat 20 nM,0.21
same,combination index (CI),A2780 [8]; cisplatin 4.00 µM + panobinostat 30 nM,0.27
same,combination index (CI),A2780 [8]; [14],0.25
same,combination index (CI),A2780 [8]; cisplatin 6.00 µM + panobinostat 10 nM,0.29
same,combination index (CI),A2780 [8]; cisplatin 6.00 µM + panobinostat 20 nM,0.23
same,combination index (CI),A2780 [8]; cisplatin 6.00 µM + panobinostat 30 nM,0.26
same,combination index (CI),A2780 [8]; cisplatin 6.00 µM + panobinostat 40 nM,0.26
same,combination index (CI),HEY [9]; cisplatin 0.32 µM + panobinostat 5.0 nM,* (* means fraction affected is less than 0.20)
same,combination index (CI),HEY [9]; cisplatin 0.32 µM + panobinostat 10.0 nM,* (* means fraction affected is less than 0.20)
same,combination index (CI),HEY [9]; cisplatin 0.32 µM + panobinostat 20.0 nM,0.14
same,combination index (CI),HEY [9]; cisplatin 0.32 µM + panobinostat […],0.19
same,combination index (CI),HEY [9]; cisplatin 0.50 µM + panobinostat 5.0 nM,* (* means fraction affected is less than 0.20)
same,combination index (CI),HEY [9]; cisplatin 0.50 µM + panobinostat 10.0 nM,* (* means fraction affected is less than 0.20)
same,combination index (CI),HEY [9]; cisplatin 0.50 µM + panobinostat 20.0 nM,0.15
same,combination index (CI),HEY [9]; cisplatin 0.50 µM + panobinostat […],0.21
same,combination index (CI),HEY [9]; cisplatin 1.00 µM + panobinostat 5.0 nM,* (* means fraction affected is less than 0.20)
same,combination index (CI),HEY [9]; cisplatin 1.00 µM + panobinostat 10.0 nM,* (* means fraction affected is less than 0.20)
same,combination index (CI),HEY [9]; cisplatin 1.00 µM + panobinostat 20.0 nM,0.16
same,combination index (CI),HEY [9]; cisplatin 1.00 µM + panobinostat […],0.25
same,combination index (CI),HEY [9]; cisplatin 2.00 µM + panobinostat 5.0 nM,* (* means fraction affected is less than 0.20)
same,combination index (CI),HEY [9]; cisplatin 2.00 µM + panobinostat 10.0 nM,0.41
same,combination index (CI),HEY [9]; cisplatin 2.00 µM + panobinostat 20.0 nM,0.17
same,combination index (CI),HEY [9]; cisplatin 2.00 µM + panobinostat […],0.25
same,combination index (CI),HEY [9]; cisplatin 4.00 µM + panobinostat 5.0 nM,0.51
same,combination index (CI),HEY [9]; cisplatin 4.00 µM + panobinostat 10.0 nM,0.33
same,combination index (CI),HEY [9]; cisplatin 4.00 µM + panobinostat 20.0 nM,0.20
same,combination index (CI),HEY [9]; cisplatin 4.00 µM + panobinostat […],0.28
